{"source": "paper PMC6270171", "about": "“In Vitro and In Vivo Antiangiogenic Activity of Caged Polyprenylated Xanthones Isolated from Garcinia hanburyi Hook. f” (Molecules, 2013)", "key": {"HepG-2": {"system": "HepG-2", "assay": "MTT cytotoxicity assay, HepG-2", "assay_type": "cell-based", "conditions": "Homo sapiens", "method": "(§1) The xanthones 1–11 were tested for cytotoxicity against HeLa, A549, HCT-116, and HepG-2 human cancer cell lines and inhibition on the proliferation of the HUVEC cell line by using the MTT assay according to the described protocols."}, "zebrafish embryos [1]": {"system": "zebrafish embryos", "assay": "Death rates of treated zebrafish embryos", "assay_type": "in vivo, zebrafish (Danio rerio)", "conditions": "for Death Rate: eight embryos per well, control 0; for Concentration that caused the death of all zebrafish embryos: highest concentration tested", "method": "(§2) A transgenic zebrafish line, Tg(flk1:EGFP), with the endothelial- specific flk1 promoter directing enhanced green fluorescent protein (EGFP) expression in all endothelial cells of the vasculature was used. Adult zebrafish were maintained at 28.5 °C in a recirculating aquaculture system. Zebrafish embryos were generated by natural pair-wise mating, collected in the morning and raised at 28.5 °C in embryo water (0.2 g/L of Instant Ocean Salt in distilled water). At 6 h post-fertilization (hpf), the embryos were sorted for viability and developmental stage (shield stage). The embryos were firstly placed in 24-well plates in 1 mL of embryo water with eight embryos per well. Then, the xanthones, at various concentrations, were added to embryo water of each well from the shield stage (about 6 h). Because the fish embryo receives nourishment from an attached yolk ball for the duration of the experiment, no additional maintenance was required during the duration of the experiments. After treatment with the drugs for 24 h, the embryos were anesthetized with 0.05% 2-phenoxyethanol in embryo water. One to three embryos were placed on carry sheet glass and each embryo was examined for the presence of ectopic vessels in the subintestinal vessel plexus (SIV) as an indication of antiangiogenic effect. Photographs were taken under a fluorescence microscope."}, "A549": {"system": "A549", "assay": "MTT cytotoxicity assay, A549", "assay_type": "cell-based", "conditions": "Homo sapiens", "method": "as §1"}, "HCT-116": {"system": "HCT-116", "assay": "MTT cytotoxicity assay, HCT-116", "assay_type": "cell-based", "conditions": "Homo sapiens", "method": "as §1"}, "HUVEC cell line": {"system": "HUVEC cell line", "assay": "MTT assay, inhibition of proliferation of HUVEC cell line", "assay_type": "cell-based", "conditions": "Homo sapiens, read-out: IC50 HUVEC", "method": "as §1"}, "HeLa": {"system": "HeLa", "assay": "MTT cytotoxicity assay, HeLa", "assay_type": "cell-based", "conditions": "Homo sapiens, read-out: IC50 HeLa", "method": "as §1"}, "zebrafish embryos [2]": {"system": "zebrafish embryos", "assay": "Heart rates of treated zebrafish embryos", "assay_type": "in vivo, zebrafish (Danio rerio)"}, "HUVEC": {"system": "HUVEC", "assay": "HUVEC wound migration assay", "assay_type": "cell-based, human", "conditions": "0.5 μM, 24 h", "method": "The wound migration assay was performed as previously described. HUVECs were seeded at a plating density of 2 × 10^5 per well in 6-well plates which had been coated with 1% gelatin, cells grown in DMEM medium with 10% FBS overnight. After reaching 100% confluence, the cells were then gently scraped with a plastic tip to produce a wound area. After wounding cells were incubated with fresh DMEM medium with xanthones 1, 3, 7 and 9 at a concentration of 0.5 μM, the migration and cell movement throughout the wound area was examined after 24 h."}, "[3]": {"system": "zebrafish embryos Tg(flk1:EGFP)", "assay": "Antiangiogenic activity assay on blood vessel formation in zebrafish embryos", "assay_type": "in vivo, zebrafish (Danio rerio)", "conditions": "for Antiangiogenic activity to zebrafish embryos: concentrations varying from 1 μM to 16 μM; for Concentration with inhibitory effect on ISV formation (Figure 2): zebrafish embryos, 24 h, effects of 3, 7, 9 comparable to GA", "method": "as §2"}, "[4]": {"conditions": "HepG2, MTT assay, 50% inhibition of cell growth, read-out: IC50 HepG-2"}, "[5]": {"conditions": "A549, MTT assay, 50% inhibition of cell growth, read-out: IC50 A549"}, "[6]": {"conditions": "HCT-116, MTT assay, 50% inhibition of cell growth, read-out: IC50 HCT-116"}, "[7]": {"conditions": "MTT assay, 50% inhibition of cell growth"}, "[8]": {"conditions": "Tg(flk1:EGFP), zebrafish, in vivo, 24 h, 2 μM"}, "[9]": {"conditions": "Tg(flk1:EGFP), zebrafish, in vivo, 24 h, 4 μM"}, "[10]": {"conditions": "HCT-116, read-out: IC50 HCT-116"}, "[11]": {"conditions": "2 μM, zebrafish embryos, control 21 per 10 s"}, "[12]": {"conditions": "4 μM, zebrafish embryos, control 21 per 10 s"}, "[13]": {"conditions": "8 μM, zebrafish embryos, control 21 per 10 s"}}, "note": "Where “and” joins values, the source holds several entries; their conditions need not be identical. Equal entries are not always repeated. Where two headings read alike, the source gives them in different places.", "data": [{"compound": "CC(C)=CCc1c2c(c(O)c3c1O[C@]14C(=C[C@@H]5C[C@H]1C(C)(C)O[C@@]4(C/C=C(/C)C=O)C5=O)C3=O)C=CC(C)(C)O2", "note": "[Xanthone 5, morellin isomers]", "values": [{"measurement": "IC50", "setting": "HepG-2; [4]", "result": 5.97, "unit": "µM"}, {"measurement": "Death Rate", "setting": "zebrafish embryos [1]; 2 μM", "result": 0}, {"measurement": "Death Rate", "setting": "zebrafish embryos [1]; 4 μM", "result": 0}, {"measurement": "Death Rate", "setting": "zebrafish embryos [1]; 8 μM", "result": "8/8"}, {"measurement": "IC50", "setting": "A549; [5]", "result": 6.43, "unit": "µM"}, {"measurement": "IC50", "setting": "HCT-116; [6]", "result": 2760, "unit": "nM"}, {"measurement": "IC50", "setting": "HUVEC cell line; [7]", "result": 2390, "unit": "nM"}, {"measurement": "IC50", "setting": "HeLa; [7]", "result": 5.33, "unit": "µM"}, {"measurement": "Heart Rate", "setting": "zebrafish embryos [2]; [8]", "result": 13, "unit": "per 10 s"}, {"measurement": "Heart Rate", "setting": "zebrafish embryos [2]; [9]", "result": 10, "unit": "per 10 s"}, {"measurement": "Heart Rate", "setting": "zebrafish embryos [2]; Tg(flk1:EGFP), zebrafish, in vivo, 24 h, 8 μM", "result": 8, "unit": "per 10 s"}]}, {"compound": "CC(C)=CCC[C@]1(C)C=Cc2c(O)c3c(c(CC=C(C)C)c2O1)O[C@]12C(=C[C@@H]4C[C@H]1C(C)(C)O[C@@]2(C/C=C(/C)C(=O)O)C4=O)C3=O", "note": "[Xanthone 1, gambogic acid]", "values": [{"measurement": "IC50", "setting": "HepG-2; [4]", "result": 0.78, "unit": "µM"}, {"measurement": "Death Rate", "setting": "zebrafish embryos [1]; 1 μM", "result": 0}, {"measurement": "Death Rate", "setting": "zebrafish embryos [1]; 2 μM", "result": "1/8"}, {"measurement": "Death Rate", "setting": "zebrafish embryos [1]; 4 μM", "result": "8/8"}, {"measurement": "Concentration that caused the death of all zebrafish embryos", "setting": "zebrafish embryos [1]", "result": 4, "unit": "µM"}, {"measurement": "IC50", "setting": "A549; [5]", "result": 1.55, "unit": "µM"}, {"measurement": "Inhibition of the migration of HUVEC", "setting": "HUVEC", "result": "remarkable inhibition"}, {"measurement": "Antiangiogenic activity to zebrafish embryos", "setting": "[3]", "result": "displayed antiangiogenic activity"}, {"measurement": "Concentration with inhibitory effect on ISV formation (Figure 2)", "setting": "[3]", "result": "1 µM and 2 µM"}, {"measurement": "IC50", "setting": "HCT-116; [6]", "result": 640, "unit": "nM"}, {"measurement": "IC50", "setting": "HUVEC cell line; [7]", "result": 720, "unit": "nM"}, {"measurement": "IC50", "setting": "HeLa; [7]", "result": 1.59, "unit": "µM"}, {"measurement": "Heart Rate", "setting": "zebrafish embryos [2]; Tg(flk1:EGFP), zebrafish, in vivo, 24 h, 1 μM", "result": 8, "unit": "per 10 s"}, {"measurement": "Heart Rate", "setting": "zebrafish embryos [2]; [8]", "result": 3, "unit": "per 10 s"}, {"measurement": "Heart Rate", "setting": "zebrafish embryos [2]; [9]", "result": 0, "unit": "per 10 s"}]}, {"compound": "CC(C)=CCc1c2c(c(O)c3c1O[C@]14C(=C[C@@H]5C[C@H]1C(C)(C)O[C@@]4(C/C=C(/C)C(=O)O)C5=O)C3=O)C=CC(C)(C)O2", "note": "[Xanthone 3, morellic acid]", "values": [{"measurement": "IC50", "setting": "HepG-2; HepG2, read-out: IC50 HepG-2", "result": 13.3, "unit": "µM"}, {"measurement": "Death Rate", "setting": "zebrafish embryos [1]; 2 μM", "result": 0}, {"measurement": "Death Rate", "setting": "zebrafish embryos [1]; 4 μM", "result": 0}, {"measurement": "Death Rate", "setting": "zebrafish embryos [1]; 8 μM", "result": "8/8"}, {"measurement": "Concentration that caused the death of all zebrafish embryos", "setting": "zebrafish embryos [1]", "result": 8, "unit": "µM"}, {"measurement": "IC50", "setting": "A549; A549, read-out: IC50 A549", "result": 14.2, "unit": "µM"}, {"measurement": "Inhibition of the migration of HUVEC", "setting": "HUVEC", "result": "remarkable inhibition"}, {"measurement": "Antiangiogenic activity to zebrafish embryos", "setting": "[3]", "result": "displayed antiangiogenic activity"}, {"measurement": "Concentration with inhibitory effect on ISV formation (Figure 2)", "setting": "[3]", "result": 4, "unit": "µM"}, {"measurement": "IC50", "setting": "HCT-116; [10]", "result": 8890, "unit": "nM"}, {"measurement": "IC50", "setting": "HUVEC cell line", "result": 6140, "unit": "nM"}, {"measurement": "IC50", "setting": "HeLa", "result": 13.8, "unit": "µM"}, {"measurement": "Heart Rate", "setting": "zebrafish embryos [2]; [11]", "result": 8, "unit": "per 10 s"}, {"measurement": "Heart Rate", "setting": "zebrafish embryos [2]; [12]", "result": 6, "unit": "per 10 s"}, {"measurement": "Heart Rate", "setting": "zebrafish embryos [2]; [13]", "result": 0, "unit": "per 10 s"}]}, {"compound": "CC(C)=CCc1c2c(c(O)c3c1O[C@]14C(=C[C@@H]5C[C@H]1C(C)(C)O[C@@]4(CC=C(C)C)C5=O)C3=O)C=CC(C)(C)O2", "note": "[Xanthone 10, desoxymorellin]", "values": [{"measurement": "IC50", "setting": "HepG-2; HepG2, read-out: IC50 HepG-2", "result": 1, "unit": "µM"}, {"measurement": "Death Rate", "setting": "zebrafish embryos [1]; 1 μM", "result": 0}, {"measurement": "Death Rate", "setting": "zebrafish embryos [1]; 2 μM", "result": 0}, {"measurement": "Death Rate", "setting": "zebrafish embryos [1]; 4 μM", "result": 0}, {"measurement": "Death Rate", "setting": "zebrafish embryos [1]; 8 μM", "result": 0}, {"measurement": "IC50", "setting": "A549; A549, read-out: IC50 A549", "result": 2.05, "unit": "µM"}, {"measurement": "IC50", "setting": "HCT-116; [10]", "result": 1200, "unit": "nM"}, {"measurement": "IC50", "setting": "HUVEC cell line", "result": 900, "unit": "nM"}, {"measurement": "IC50", "setting": "HeLa", "result": 2.6, "unit": "µM"}, {"measurement": "Heart Rate", "setting": "zebrafish embryos [2]; 1 μM, zebrafish embryos, control 21 per 10 s", "result": 20, "unit": "per 10 s"}, {"measurement": "Heart Rate", "setting": "zebrafish embryos [2]; [11]", "result": 17, "unit": "per 10 s"}, {"measurement": "Heart Rate", "setting": "zebrafish embryos [2]; [12]", "result": 16, "unit": "per 10 s"}, {"measurement": "Heart Rate", "setting": "zebrafish embryos [2]; [13]", "result": 16, "unit": "per 10 s"}]}, {"compound": "CC(C)=CCC/C(C)=C/Cc1c(O)c(CC=C(C)C)c2c(c1O)C(=O)C1=C[C@@H]3C[C@H]4C(C)(C)O[C@@](C/C=C(\\C)C(=O)O)(C3=O)[C@@]14O2", "note": "[Xanthone 9, isogambogenic acid]", "values": [{"measurement": "IC50", "setting": "HepG-2; [4]", "result": 6.35, "unit": "µM"}, {"measurement": "Death Rate", "setting": "zebrafish embryos [1]; 2 μM", "result": 0}, {"measurement": "Death Rate", "setting": "zebrafish embryos [1]; 4 μM", "result": 0}, {"measurement": "Death Rate", "setting": "zebrafish embryos [1]; 8 μM", "result": "8/8"}, {"measurement": "Concentration that caused the death of all zebrafish embryos", "setting": "zebrafish embryos [1]", "result": 8, "unit": "µM"}, {"measurement": "IC50", "setting": "A549; [5]", "result": 12.7, "unit": "µM"}, {"measurement": "Inhibition of the migration of HUVEC", "setting": "HUVEC", "result": "remarkable inhibition"}, {"measurement": "Antiangiogenic activity to zebrafish embryos", "setting": "[3]", "result": "displayed antiangiogenic activity"}, {"measurement": "Concentration with inhibitory effect on ISV formation (Figure 2)", "setting": "[3]", "result": 4, "unit": "µM"}, {"measurement": "IC50", "setting": "HCT-116; [6]", "result": 11700, "unit": "nM"}, {"measurement": "IC50", "setting": "HUVEC cell line; [7]", "result": 1730, "unit": "nM"}, {"measurement": "IC50", "setting": "HeLa; [7]", "result": 6.35, "unit": "µM"}, {"measurement": "Heart Rate", "setting": "zebrafish embryos [2]; [11]", "result": 8, "unit": "per 10 s"}, {"measurement": "Heart Rate", "setting": "zebrafish embryos [2]; [12]", "result": 5, "unit": "per 10 s"}, {"measurement": "Heart Rate", "setting": "zebrafish embryos [2]; [13]", "result": 0, "unit": "per 10 s"}]}]}
